Laboratory results published in patent US9302999B2, “Substituted triazoles as herbicides” (E. I. DU PONT DE NEMOURS AND COMPANY, priority 2012, dated 2016).
Where two headings read alike, the source gives them in different places.

Columns and labels:
Assay type in all cases: in vivo
[1] = test system: winter wheat (Triticum aestivum); experiment: Test C pre-/postemergence: winter wheat
Outline: (§1)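 Visual injury scored 0–100 (100 = complete control) against untreated controls after 13–15 greenhouse days. Surfactant-containing solvent formulations applied either to soil after sowing (loam/sand) or over 1- to 4-leaf plants, 2–18 cm tall.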

[2] = test system: foxtail, giant (giant foxtail, Setaria faberii); experiment: Test C pre-/postemergence: foxtail, giant; conditions: Postemergence
Outline: as §1

kochia (Kochia scoparia) = experiment: Test C pre-/postemergence: kochia; conditions: Postemergence
Outline: as §1

wild oat (Avena fatua) = experiment: Test C pre-/postemergence: wild oat
Outline: as §1

[3] = test system: crabgrass, large (large crabgrass, Digitaria sanguinalis); experiment: Test A pre-/postemergence: crabgrass, large; conditions: Digitaria sanguinalis, 240 h; for pest or weed control at 125 g/ha: 125 g ai/ha; for pest or weed control at 500 g/ha: 500 g ai/ha
Outline: (§2)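 Pre: directed soil spray after planting in loam + sand. Post: same formulation (non-phytotoxic solvent + surfactant) on 1–2-leaf plants, 2–10 cm. Greenhouse ~10 d; visual injury 0–100 vs untreated.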

[4] = test system: foxtail, giant (giant foxtail, Setaria faberii); experiment: Test A pre-/postemergence: foxtail, giant; conditions: Setaria faberi, 240 h; for pest or weed control at 125 g/ha: 125 g ai/ha; for pest or weed control at 500 g/ha: 500 g ai/ha
Outline: as §2

[5] = test system: ragweed (common ragweed, Ambrosia elation); experiment: Test C pre-/postemergence: ragweed; conditions: Postemergence
Outline: as §1

soybean (Glycine max) = experiment: Test C pre-/postemergence: soybean; conditions: Postemergence
Outline: as §1

[6] = test system: velvetleaf (Abutilon theophrasti); experiment: Test C pre-/postemergence: velvetleaf; conditions: Postemergence
Outline: as §1

[7] = test system: large crabgrass (Digitaria sanguinalis); experiment: Test C pre-/postemergence: large crabgrass; conditions: Postemergence
Outline: as §1

[8] = test system: pigweed (Amaranthus retroflexus); experiment: Test C pre-/postemergence: pigweed; conditions: Postemergence
Outline: as §1

corn (Zea mays) = experiment: Test A pre-/postemergence: corn; conditions: Zea mays, 240 h
Outline: as §2

[9] = Postemergence, 31 g ai/ha, scale 0 to 100 (0 no effect, 100 complete control)
[10] = Postemergence, 62 g ai/ha, scale 0 to 100 (0 no effect, 100 complete control)
[11] = Postemergence, 125 g ai/ha, scale 0 to 100, 0 no effect, 100 complete control
[12] = Postemergence, 250 g ai/ha, scale 0 to 100
[13] = Preemergence, 31 g ai/ha, scale of 0 to 100, 0 is no effect, 100 is complete control
[14] = Preemergence, 62 g ai/ha, scale of 0 to 100, 0 is no effect, 100 is complete control
[15] = Preemergence, 125 g ai/ha, scale 0 to 100, 0 no effect, 100 complete control
[16] = Preemergence, 250 g ai/ha, scale 0 to 100, 0 no effect, 100 complete control
[17] = 31 g ai/ha, scale 0 to 100 (0 no effect, 100 complete control)
[18] = 62 g ai/ha, scale 0 to 100 (0 no effect, 100 complete control)
[19] = 125 g ai/ha, scale 0 to 100, 0 no effect, 100 complete control

## Cc1nn(-c2ccc(F)cc2)nc1Cc1ccnc(C(F)(F)F)c1 [Compound 16, 4-[[2-(4-fluorophenyl)-5-methyl-2H-1,2,3-triazol-4-yl]methyl]-2-(trifluoromethyl)pyridine]
[1]; [9]
  Plant response rating, Wheat: 5
[1]; [10]
  Plant response rating, Wheat: 20
[1]; [11]
  Plant response rating, Wheat: 25
[1]; [12]
  Plant response rating, Wheat: 30
[1]; [13]
  Plant response rating, Wheat: 0
[1]; [14]
  Plant response rating, Wheat: 5
[1]; [15]
  Plant response rating, Wheat: 15
[1]; [16]
  Plant response rating, Wheat: 45
[2]; [17]
  Plant response rating, Foxtail, Giant: 40
[2]; [18]
  Plant response rating, Foxtail, Giant: 40
[2]; [19]
  Plant response rating, Foxtail, Giant: 50
[2]; 250 g ai/ha, scale 0 to 100
  Plant response rating, Foxtail, Giant: 50
Kochia (Kochia scoparia); [17]
  Plant response rating, Kochia: 95
Kochia (Kochia scoparia); [18]
  Plant response rating, Kochia: 98
Kochia (Kochia scoparia); [19]
  Plant response rating, Kochia: 98
Kochia (Kochia scoparia); 250 g ai/ha, scale 0 to 100
  Plant response rating, Kochia: 98
Wild oat (Avena fatua); [9]
  Plant response rating, Oat, Wild: 5
Wild oat (Avena fatua); [10]
  Plant response rating, Oat, Wild: 10
Wild oat (Avena fatua); [11]
  Plant response rating, Oat, Wild: 20
Wild oat (Avena fatua); [12]
  Plant response rating, Oat, Wild: 80
Wild oat (Avena fatua); [13]
  Plant response rating, Oat, Wild: 98
Wild oat (Avena fatua); [14]
  Plant response rating, Oat, Wild: 100
Wild oat (Avena fatua); [15]
  Plant response rating, Oat, Wild: 100
Wild oat (Avena fatua); [16]
  Plant response rating, Oat, Wild: 100
[3]; post-emergence, Postemergence, 0 to 100 scale, 0 is no effect, 100 is complete control, read-out: Crabgrass, Large plant response rating
  pest or weed control at 125 g/ha: 90%
[3]; post-emergence, Postemergence, visual rating on 0 to 100 scale (0 no effect, 100 complete control), approximately ten days, read-out: Crabgrass, Large plant response rating
  pest or weed control at 500 g/ha: 90%
[3]; pre-emergence, Preemergence, 0 to 100 scale (0 no effect, 100 complete control), read-out: Plant response rating, Crabgrass, Large
  pest or weed control at 125 g/ha: 90%
[3]; pre-emergence, Preemergence, 0 to 100 scale, 0 is no effect, 100 is complete control, read-out: Plant response rating, Crabgrass, Large
  pest or weed control at 500 g/ha: 100%
[4]; post-emergence, Postemergence, 0 to 100 scale, 0 is no effect, 100 is complete control, read-out: Foxtail, Giant plant response rating
  pest or weed control at 125 g/ha: 90%
[4]; post-emergence, Postemergence, visual rating on 0 to 100 scale (0 no effect, 100 complete control), approximately ten days, read-out: Foxtail, Giant plant response rating
  pest or weed control at 500 g/ha: 90%
[4]; pre-emergence, Preemergence, 0 to 100 scale (0 no effect, 100 complete control), read-out: Plant response rating, Foxtail, Giant
  pest or weed control at 125 g/ha: 100%
[4]; pre-emergence, Preemergence, 0 to 100 scale, 0 is no effect, 100 is complete control, read-out: Plant response rating, Foxtail, Giant
  pest or weed control at 500 g/ha: 100%
[5]; [17]
  Plant response rating, Ragweed: 5
[5]; [18]
  Plant response rating, Ragweed: 25
[5]; [19]
  Plant response rating, Ragweed: 75
[5]; 250 g ai/ha, scale 0 to 100
  Plant response rating, Ragweed: 75
Soybean (Glycine max); [17]
  Plant response rating, Soybean: 20
Soybean (Glycine max); [18]
  Plant response rating, Soybean: 25
Soybean (Glycine max); [19]
  Plant response rating, Soybean: 35
Soybean (Glycine max); 250 g ai/ha, scale 0 to 100
  Plant response rating, Soybean: 35
[6]; [17]
  Plant response rating, Velvetleaf: 10
[6]; [18]
  Plant response rating, Velvetleaf: 65
[6]; [19]
  Plant response rating, Velvetleaf: 65
[6]; 250 g ai/ha, scale 0 to 100
  Plant response rating, Velvetleaf: 85
[7]; [17]
  Plant response rating, Crabgrass, Large: 5
[7]; [18]
  Plant response rating, Crabgrass, Large: 5
[7]; [19]
  Plant response rating, Crabgrass, Large: 20
[7]; 250 g ai/ha, scale 0 to 100
  Plant response rating, Crabgrass, Large: 60
[8]; [17]
  Plant response rating, Pigweed: 75
[8]; [18]
  Plant response rating, Pigweed: 95
[8]; [19]
  Plant response rating, Pigweed: 100
[8]; 250 g ai/ha, scale 0 to 100
  Plant response rating, Pigweed: 100
Corn (Zea mays); post-emergence, Postemergence, 125 g ai/ha, 0 to 100 scale, 0 is no effect, 100 is complete control, read-out: Corn plant response rating
  plant injury at 125 g/ha: 30%
Corn (Zea mays); post-emergence, Postemergence, 500 g ai/ha, visual rating on 0 to 100 scale (0 no effect, 100 complete control), approximately ten days, read-out: Corn plant response rating
  plant injury at 500 g/ha: 50%
Corn (Zea mays); pre-emergence, Preemergence, 125 g ai/ha, 0 to 100 scale (0 no effect, 100 complete control)
  Corn plant response rating (crop injury, 0 = no effect, 100 = complete kill) at 125 g/ha: 10%
Corn (Zea mays); pre-emergence, Preemergence, 500 g ai/ha, 0 to 100 scale, 0 is no effect, 100 is complete control
  Corn plant response rating (crop injury, 0 = no effect, 100 = complete kill) at 500 g/ha: 20%
